# How the values were obtained:
# SARS-CoV-2 [1] = assay: quantitative plaque assay for SARS-CoV-2 in VeroE6 cells; format: cell-based; design: lowest concentration with significant reduction in viral load: unit not given here; settings: for suppression of the viral burden elicited by SARS-CoV-2: MOI 0.01, 24 Hr after the initial infection, simultaneous treatment with virus plus lipid
# Method: VeroE6 cells were infected with SARS-CoV-2 at an MOI=0.01 in either the absence of lipids, or presence of POPG, or PI, or POPC, at concentrations of 250 μg/ml-1000 μg/ml (SARS-CoV-2+POPG, SARS-CoV-2+PI) or the control lipid phosphatidylcholine (PC), at various concentrations (250 μg-1000 μg/ml) (SARS-CoV-2+PC). Cells were preincubated with lipids 30 mins before viral inoculation. Culture media was harvested at 24 hr and processed for quantitative plaque assay for SARS-CoV-2 (FIG. 1A) and for viral yield as a function of phospholipid concentration (FIG. 1). The data are shown as mean+/−SE for three independent experiments in log10 scale. is a graph of viral yield as a function of phospholipid concentration.
# A sample holder containing 96 wells (3 plates) was provided and was plated with VeroE6 cells (a cell lineage isolated from kidney epithelial cells extracted from an African green monkey) at a concentration of 5×10^4 cells/well in 100 μl of medium. The medium utilized comprised Dulbecco's Modified Eagle Medium (DMEM), 5% fetal bovine serum (FCS), 1% L-glutamine, and 10,000 U/ml penicillin-streptomycin (PS). Here, it is noted that the antibiotics penicillin and streptomycin are commonly utilized to prevent bacterial contamination of cell cultures due to their effective combined action against gram-positive and gram-negative bacteria.
# The wells were washed two times with calcium-free and magnesium-free phosphate buffered saline (PBS) (100 μl/well), and then an additional time with a culture medium consisting of DMEM, L-glutamine, 0.1% bovine serum albumin (BSA) and 10,000 U/ml PS.
# The cells were then preincubated with lipids in the culture medium (100 μl/well) for 30-60 minutes at 37° C. Samples of SARS-CoV-2 virus were added at multiplicities of infection (MOI) of 0.01 and the virus was allowed to absorb for 2 hours at 37° C. […]
# FIGS. 1A and 1B depicts the results obtained for quantitative plaque assay for SARS-CoV-2 (FIG. 1A) and for % viral yield as a function of phospholipid concentration (FIG. 1B).
# VeroE6 cells = assay: cell viability assays on VeroE6 cells; format: cell-based, African green monkey; settings: 2 mg/ml
# SARS-CoV-2 [2] = assay: cytopathic effect by SARS-CoV-2 in VeroE6 cells (histological images); format: cell-based; settings: 72 hrs after infection, POPG 1000 μg/ml, PI 500 μg/ml, PC 2000 μg/ml
# SARS-CoV-2 [3] = format: cell-based; settings: 48 hrs; for reduction of SARS-CoV-2 mRNA expression: healthy control subjects (n=3), lipid 16 hrs before infection, 5 mg/ml POPG, 2 mg/ml PI
# SARS-CoV-2 [4] = assay: SARS-CoV-2 replication by qRT-PCR in differentiated nasal epithelial cells from a patient with COPD; format: cell-based; settings: 48 hrs, 5 mg/ml POPG, 2 mg/ml PI
# [5] = test system: primary human bronchial epithelial cells; assay: 3H-leucine protein synthesis and secretion in primary human bronchial epithelial cells in ALI cultures; format: cell-based; settings: for pleiotropic inhibition of metabolism (3H-intracellular protein synthesis, 3H secreted protein): 64 h with 3H-leucine, 5 mg/mL POPG or 2 mg/ml PI in apical media; for cytotoxic effects on primary airway epithelial cells: cells from patients with COPD as worded in b103 (FIGS. 11A-11B)
# Method: Bronchial epithelia cells were incubated for 64 h with 3H-leucine in either the presence, or absence of 5 mg/mL of POPG; or 2 mg/ml of PI in only the apical media. 3H-intracellular protein synthesis (FIG. 11A), and 3H secreted protein in apical media (FIG. 11B) are shown. […]
# [6] = target: T1, SARS-CoV-2 S1 ECD protein (Severe acute respiratory syndrome coronavirus 2, UniProt P0DTC2); assay: binding to SARS-CoV-2 S1 ECD protein
# T1 construct: SARS-CoV-2 S1 ECD protein
# SARS-CoV-2 [7] = assay: hamster model of SARS-CoV-2 infection, intranasal treatment; format: in vivo, Syrian hamsters
Molecule,suppression of the viral burden elicited by SARS-CoV-2 (SARS-CoV-2 [1]) [%],toxicity on VeroE6 cells (VeroE6 cells),state of infected cell cultures (cytopathic effect) (SARS-CoV-2 [2]),reduction of SARS-CoV-2 mRNA expression (SARS-CoV-2 [3]) [%],replication in differentiated nasal epithelial cells of severe asthmatics (SARS-CoV-2 [3]),attenuation of SARS-CoV-2 replication (SARS-CoV-2 [4]) [%],"pleiotropic inhibition of metabolism (3H-intracellular protein synthesis, 3H secreted protein) [5]",cytotoxic effects on primary airway epithelial cells [5],binding to SARS-CoV-2 S1 ECD protein [6],"effect on SARS-CoV-2 replication (SARS-CoV-2 [3]; healthy control subjects, PC 10 mg/ml)",lowest concentration with significant reduction in viral load (SARS-CoV-2 [1]; 24 hr),"SARS-CoV-2 replication in hamsters (plaque assays of pharyngeal swabs) (SARS-CoV-2 [7]; PI 2 mg/animal intranasal, days 1-3)","mean turbinate viral load (SARS-CoV-2 [7]; hamsters, 2 mg PI intranasal, after 24 hours, untreated group 2.4E+04)","% inhibition of viral load (SARS-CoV-2 [7]; hamsters, single dose of 2 mg PI, after 24 hours, versus untreated) [%]"
"CCCCCCCC/C=C\CCCCCCCC(=O)O[C@H](COC(=O)CCCCCCCCCCCCCCC)COP(=O)(O)OCC(O)CO (stereo partly shown) [POPG, palmitoyl-oleoyl-phosphatidylglycerol]",90,"Neither POPG, PI or POPC elicited toxicity",remained intact,75,inhibit replication,80,does not produce pleiotropic inhibition of metabolism,neither POPG nor PI had cytotoxic effects,weak affinity and non-specific manner,,,,,
"phosphatidylcholine [PC, reference compound]",,"Neither POPG, PI or POPC elicited toxicity",significant cytopathic effects,,,,,,,did not affect SARS-CoV-2 replication,,,,
phosphatidylinositol [PI],99,"Neither POPG, PI or POPC elicited toxicity",remained intact,87,inhibit replication,85,does not produce pleiotropic inhibition of metabolism,neither POPG nor PI had cytotoxic effects,weak affinity and non-specific manner,,≥ 250,inhibits SARS-CoV-2 replication,9.3E+01,99.6

# Reference: US20260183321A1, “TREATMENT OF CORONAVIRUS INFECTIONS WITH ANTIMICROBIAL PHOSPHOLIPID COMPOSITIONS” (NATIONAL JEWISH HEALTH, priority 2022, published 2026)
